{"source": "patent US20090068143A1", "about": "“ORALLY EFFECTIVE C[…]” (priority 2005, published 2009)", "key": {"inflammatory pain": {"test_system": "inflammatory pain", "test": "Inflammatory pain and paw edema, λ carrageenan", "format": "in vivo, Sprague Dawley rats", "details": "for ΔLT between hind paws, thermal stimulus: 3 hours; for reduction of delta force between paws, tactile stimulus: vehicle 31 g", "experimental": "Male Sprague Dawley rats (average body weight 200 g, Harlan, Israel) were transiently sedated by placement on dry ice for the duration of the injections. Rats were injected subcutaneously, in the subplantar region of one (right) paw with 0.1 ml of 2% w/v λ Carrageenan in sterile saline. […] Test compounds were administered p.o. by oral gavage immediately after the carrageenan injection as pretreatment. Vehicle (PB) treated animals were used as controls. Before induction of inflammatory pain and three hours after injection, the animals reactions to pain stimuli were tested in two systems. The first stimulus was thermal and assessed by the Plantar Test according to Hargreaves, using Ugo Basile Model 7370. The scale was set to an intensity of 50 arbitrary units. The latency time till the animal lift a paw as a reaction to the thermal stimulus was recorded for both the inflamed and non-inflamed hind paws. The second stimulus was mechanical (tactile) and assessed using a Dynamic Plantar Sesthesiomether (Ugo Basile Model 73400-002). […] Finally, the impact on paw edema was assessed. Paw thickness is measured using a dial thickness gauge (Spring-dial, constant low pressure gauge, Mitutoyo, TG/L-1, 0.00 mm) and paw volume is measured using a plethysmometer (model #7150, Ugo Basile, Italy). At the end of the study, animals were euthanized with an i.p. injection of 100 mg/kg pentobarbitone.\nThe results are measured as the differences between the two hind paws at time 0 and 3 hours both as ALT, for the latency time in the thermal part of the study, and as ΔForce, for the mechanical part of the study. The paw volume is expressed as percent from vehicle treated animals. Results are expressed as mean±SEM for each treatment group and the differences among those groups are analyzed by analysis of variance (ANOVA) followed by post-hoc Tukey's test. A value of p<0.05 was considered to be statistically significant and is indicated on the figure by an asterisk over the relevant treatment group."}, "RAW 264.7 macrophages": {"test_system": "RAW 264.7 macrophages", "test": "NO secretion of LPS activated RAW 264.7 macrophages (ELISA)", "format": "cell-based", "details": "Mus musculus, RAW264.7, 24 hrs after LPS stimulation", "experimental": "RAW 264.7 macrophages, a mouse cell line (ATCC # TIB 71), were grown in Dulbecco's modified Eagle's medium (DMEM) with 4 mM L-glutamine adjusted to contain 1.5 g/L sodium bicarbonate, 4.5 g/L glucose, and 10% heat inactivated fetal bovine serum. Cells were grown in tissue culture flasks and seeded at appropriate density into 6 wells tissue culture plates. Four million Raw cells in half a milliliter were stimulated with 1 μg/ml Lipopolysaccharide E. coli 055:B5 (DIFCO Laboratories). The mouse macrophages were pre-treated for one hour with controls or 10 μM of test compounds, and later on activated with LPS. RNA samples were extracted from the cells 3 hrs after activation and iNOS gene expression levels were analyzed by real-time RT-PCR as previously described. For western blot analysis, compounds were tested at 1, 5 and 10 μM and cells were harvested 24 hrs after LPS stimulation. Supernatant were collected and NO secretion was analyzed using ELISA. Cells were washed 3 times with cold PBS, scrapped and lyzed in 100 μl cell lysis buffer containing 20 mM HEPES, pH 7.6, 150 mM NaCl, 1.5 mM MgCl2, 0.2 mM EDTA, 1% Triton X-100, 10% glycerol, 1 mM DTT, 1 mM PMSF, 10 μg/ml aprotinin. 5 µg/ml leupeptin, 10 mM p-nitrophenyl phosphate, 100 mM β-glycerophosphate, 1 mM sodium fluoride, and 0.1 μM sodium orthovanadate. Cells were lyzed on ice for 10 minutes before further processing. […]"}, "acute pain": {"test_system": "acute pain", "details": "pretreatment, administered orally; cited from earlier work"}, "MBP induced acute EAE": {"test_system": "MBP induced acute EAE", "test": "MBP induced acute EAE", "format": "in vivo, Lewis rats", "experimental": "In the present study, EAE was induced by injection of Myelin Basic Protein (MBP), a method known to model the acute phase of MS. In this model the onset of the disease is observed by the appearance of clinical symptoms about 10 days after induction. The disease progresses and the clinical score increases and peaks around day 15 and spontaneous recovery is observed around day 23 after induction of the disease.\nFemale Lewis rats (average body weight 130-180 g, Harlan, Israel) were injected s.c. into the hind paws with 25 μg of purified guinea pig myelin basic protein (MBP, Sigma) emulsified in 0.1 ml of Complete Freund's Adjuvant (Difco). Animals were maintained on a 12 hours light/12 hours dark regimen, at a constant temperature of 22° C., with food and water ad libitum. Starting from day 8 following induction, animals were followed up on a daily basis. The results are recorded as clinical score; score of 0 indicates a normal animal with no clinical signs, 0.5 indicates a loss of tonicity in the tail's distal part, 1 indicates whole tail paralysis, 1.5 indicates hind legs weakness in one leg, 2 indicates hind legs weakness in two legs, 2.5 indicates fore legs paralysis in one leg, 3 indicates paralysis of all four legs, 4 indicates complete body paralysis and moribund state and 5 indicates death. The clinical score of the animals is recorded for 15 days following onset of disease until the end of the study 25 days following induction and the area under the curve (AUC) is calculated over this period of time.\nFew routes of administration were assessed and the treatments were either administered intravenously (in CE vehicle) or orally by gavage (in PB vehicle) at volume dose of 5 ml/kg.\nResults are expressed as mean±SEM and the differences between the treatment groups were analyzed by analysis of variance (ANOVA) followed by Tukey's post hoc test. A value of p<0.05 was considered to be statistically significant and is indicated on the figure by an asterisk over the relevant treatment group.\nCompound 18A was dissolved in CREMOPHOR EL®:ethanol and further diluted in physiological buffer prior to i.v. administration. It is now disclosed that compound 18F could be dissolved directly in 80 mM phosphate buffer (pH 6.4) and administered p.o. Compound 18F was administered by oral gavage at doses of 20, 30, 40, 50 and 60 mg/kg to animals showing clinical signs of the disease. Each treatment group comprised at least 10 animals at onset of disease. At some doses, experiments were repeated up to four times."}}, "data": [{"smiles": "CCCCCCC(C)(C)c1cc(O)c([C@H]2CC(=O)C3CC2C3(C)C)c(OC(=O)/C=C/C(=O)O)c1", "note": "(single isomer, unassigned; (-)) [Compound 18F, (−)-4-{4-[1,1-Dimethylheptyl]-2-fumarate-6-hydroxy-phenyl}-6,6-dimethyl-bicyclo[3.1.1]heptan-2-one]", "values": [{"measurement": "decrease in paw volume", "setting": "inflammatory pain; 10 mg/kg p.o.", "result": 6, "unit": "%"}, {"measurement": "percent reduction of delta force, tactile stimulus", "setting": "inflammatory pain; 10 mg/kg p.o.", "result": 23, "unit": "%"}, {"measurement": "reduction of ΔLT, thermal stimulus", "setting": "inflammatory pain; 10 mg/kg p.o.", "result": "no reduction"}, {"measurement": "ΔLT between hind paws, thermal stimulus", "setting": "inflammatory pain; 10 mg/kg p.o., vehicle about 7.5", "result": 7.5, "unit": "s"}, {"measurement": "decrease in paw volume", "setting": "inflammatory pain; 20 mg/kg p.o.", "result": 18, "unit": "%"}, {"measurement": "paw volume, percent of vehicle", "setting": "inflammatory pain; 20 mg/kg p.o.", "result": 82, "unit": "%"}, {"measurement": "reduction of ΔLT, thermal stimulus", "setting": "inflammatory pain; 20 mg/kg p.o.", "result": 69, "unit": "%"}, {"measurement": "ΔLT between hind paws, thermal stimulus", "setting": "inflammatory pain; 20 mg/kg p.o.", "result": 2.3, "unit": "s"}, {"measurement": "reduction of delta force between paws, tactile stimulus", "setting": "inflammatory pain; 20 mg/kg p.o.", "result": 18, "unit": "g"}, {"measurement": "reduction of ΔLT, thermal stimulus", "setting": "inflammatory pain; 30 mg/kg p.o.", "result": 88, "unit": "%"}, {"measurement": "ΔLT between hind paws, thermal stimulus", "setting": "inflammatory pain; 30 mg/kg p.o.", "result": 0.9, "unit": "s"}, {"measurement": "decrease in paw volume", "setting": "inflammatory pain; 30 mg/kg p.o., significant", "result": 52, "unit": "%"}, {"measurement": "reduction of delta force between paws, tactile stimulus", "setting": "inflammatory pain; 30 mg/kg p.o.", "result": 19, "unit": "g"}, {"measurement": "percent reduction of delta force, tactile stimulus", "setting": "inflammatory pain; 20 and 30 mg/kg p.o.", "result": "about 60%"}, {"measurement": "reduction in Δforce, mechanical stimulus", "setting": "inflammatory pain; single dose of 20 mg/kg p.o.", "result": 58, "unit": "%"}, {"measurement": "inhibition at 10 µM", "setting": "RAW 264.7 macrophages", "result": 61, "unit": "%"}, {"measurement": "efficacy against acute pain", "setting": "acute pain", "result": "effective against acute pain"}, {"measurement": "effect on clinical outcome (mean group score)", "setting": "MBP induced acute EAE; 20 mg/kg p.o.", "result": "does not significantly affect the clinical outcome"}, {"measurement": "effect on mean of maximal scores (MMS)", "setting": "MBP induced acute EAE; 20 mg/kg p.o.", "result": "only a trend of improvement"}, {"measurement": "effect on clinical outcome (mean group score)", "setting": "MBP induced acute EAE; 30 mg/kg p.o.", "result": "positive trend of score reduction"}, {"measurement": "reduction of AUC", "setting": "MBP induced acute EAE; 30 mg/kg p.o., ns", "result": "more than 20%"}, {"measurement": "reduction of AUC", "setting": "MBP induced acute EAE; 40 mg/kg p.o., p<0.05", "result": 33, "unit": "%"}, {"measurement": "reduction of AUC", "setting": "MBP induced acute EAE; 50 mg/kg p.o., p<0.05", "result": 42, "unit": "%"}, {"measurement": "animals died before study completion", "setting": "MBP induced acute EAE; 60 mg/kg p.o.", "result": 7, "unit": "%"}, {"measurement": "reduction of AUC", "setting": "MBP induced acute EAE; 60 mg/kg p.o., p<0.05", "result": 43, "unit": "%"}, {"measurement": "increase of pain threshold over vehicle treated animals (mechanical hyperalgesia)", "setting": "MBP induced acute EAE; 60 mg/kg p.o., preliminary", "result": 25, "unit": "%"}, {"measurement": "reduction in MMS", "setting": "MBP induced acute EAE; 30-60 mg/kg p.o.", "result": "at least 30%"}, {"measurement": "CB1 mediated side effects", "setting": "MBP induced acute EAE; repeated p.o. administration", "result": "no CB1 mediated side effects were observed"}]}]}
